# Results taken from patent US20100034749A1, “Use of a Cationic Collodal Preparation for the Diagnosis and Treatment of Ocular Diseases” (MediGene AG, priority 2006, published 2010).
# System: laser induced CNV model in mice
# Experiment: SLO imaging after i.v. application in laser induced CNV mouse model
# Assay type: in vivo, C57/BI6 mice
# Description: For animal experiments, the laser induced CNV model in mice was used as described by Tobe et al. (1998). In brief, C57/BI6 mice (8-12 weeks old) were anesthetized, pupils were dilated and 4-6 burns of 100 μm diameter were produced with a laser (100 mW, 100 μs). In 80-90% of the laser burns, CNV develops within about 14 days.
# As read-out, Scanning Laser Opthalmoscopy (SLO), flat mount and histology are performed. 100 μl of the respective formulation was applied intravenously, immediately followed by SLO over a time course of about 120 min. Three different EndoTAG formulations are selected:
# EndoTAG-A: DOTAP/DOPC/OG-DHPE=60/35/5 mol %, 10 mM total liposomal components in 10% trehalose (produced as described in Example 1). EndoTAG-B: DOTAP/DOPC/OG-DOPE=[…] mol %, 10 mM total liposomal components in 10% trehalose EndoTAG-C: DOTAP/DOPC/OG-DOPE/PEG-DOPE=60/30/5/5 mol %, 10 mM total liposomal components in 10% trehalose
# As control, neutral liposomes (DOPC/OG-DOPE=95/5 mol %, 10 mM total lipid, in trehalose) is applied as well as an aqueous solution of Oregon Green (0.5 mM). Additional animals are used to carry out flat mounts and histology by sacrificing animals at the respective peak intensity as observed in SLO.
substance,measurement,setting,value
Oregon Green [free dye],Accumulation at lesion site / neovascular sites,SLO after i.v. application,did not show an accumulation
same,Staining of the vasculature / neovasculature,"after 60 min, equivalent concentrations",no increased staining of the vasculature
